Data published in patent US20250051324A1, “PARP INHIBITOR, PHARMACEUTICAL COMPOSITION COMPRISING SAME, AND USE THEREOF” (KEYTHERA (SUZHOU) BIO-PHARMACEUTICALS CO., LIMITED, priority 2021, published 2025).
Like-named read-outs stand apart in the source and are kept apart here.

Tests used:
PARP1 = PARP1 (Homo sapiens (Human), UniProt P09874); assay: PARP enzyme activity assay (PARP1 chemiluminescent assay kit); assay type: biochemical; details: enzyme inhibitory activity, read-out: PARP-1 IC50
Method in brief: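 Chemiluminescent kit measuring PARP1 poly(ADP-ribosylation) of plate-coated histones in presence of activated DNA; compounds in 1:3 serial dilution, top 10 μM before 10-fold buffer dilution. Enzyme (2.5 ng/μL added) reacted 60 min at room temperature, detected by streptavidin-HRP luminescence; IC50 from log-concentration vs % inhibition.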

[1] = test system: breast cancer BR-05-0044E; assay type: in vivo, mouse; details: for Tumor Growth Inhibition Rate (TGI): 21 days
Protocol: Test Objective: The in vivo efficacy of the test compound was evaluated in a subcutaneous xenograft tumor model of breast cancer BR-05-0044E in NOD SCID mice.
Experimental Animals: Female NOD SCID mice, 6-8 weeks old, weighing 18-20 grams were provided by Beijing Charles River Laboratory Animal Technology Co., Ltd. The animals were acclimated in the experimental environment for 3-7 days before the experiment. The animals were housed in SPF-grade animal rooms in IVC cages (individually ventilated cages) with 4 mice per cage. All cages, bedding, and drinking water were sterilized before use. Cages, feed, and water were changed twice a week. The housing environment and lighting conditions were as follows: temperature: 20-26° C., humidity: 40-70%, light cycle: 12 hours light, 12 hours dark.
PDX Model Establishment: The human breast cancer BR-05-0044E model was initially derived from clinical samples surgically removed. After tumor tissue was expanded in mice, 20-30 mm^3 BR-05-0044E tumor tissue blocks were subcutaneously implanted into the right flank of each mouse. Tumor growth was monitored, and when the average tumor volume reached approximately 150-200 mm^3, the mice were randomly grouped for administration. Animals were weighed, and tumor volume was measured before administration. Random grouping was based on tumor volume (random block design).
Experimental Groups: The experiment was divided into the following groups: 1. Vehicle control group, 2. Compound 1 0.1 mg/kg, 3. Compound 1 0.3 mg/kg, 4. Compound 1 1.0 mg/kg. All groups were administered orally by gavage once daily. Routine checks included observing tumor growth and the impact of drug treatment on the animals' daily behavior (such as activity, food and water intake, body weight changes (measured twice a week), appearance, or other abnormalities). The animal number of deaths and side effects in each group were recorded.
Experimental Indicators: The experimental indicators were to assess whether tumor growth was inhibited, delayed, or cured. Tumor diameter was measured twice a week with calipers. Tumor volume was calculated using the formula: V=0.5a×b^2, where a and b represent the tumor's length and width, respectively.
The efficacy of the compound on inhibiting tumor was evaluated by tumor volume and tumor growth inhibition rate (TGI). TGI (%) was calculated as follows: TGI (%)={1−(Average Tumor volume at end of administration in treatment group−Average Tumor volume at start of administration in treatment group)/(Average Tumor volume at end of administration in vehicle control group−Average Tumor volume at start of administration in vehicle control group)}×100%.

[2] = Evaluation of pharmacokinetics in mice; details: male, ICR (CD1), mouse, plasma, po, 10 mg/kg
Protocol: Test Objective: The pharmacokinetics of the example compounds of the present application were tested in mice. By measuring the drug concentration in mouse plasma, the pharmacokinetic behavior of the compounds of the present invention was studied to evaluate their pharmacokinetic characteristics.
Test Animals: 6-8 Week Old Male ICR (CD1) Mice
Oral Gavage Drug Preparation: An appropriate amount of the test compound was first weighed and dissolved in DMSO (Macklin cas: 67-68-5) to prepare a 20 mg/mL solution. Then, 75 μL of this solution was added to 150 μL of Solutol (Sigma cas: 70142-34-6), followed by 1.275 mL of 20% Captisol (Selleck cas: 182410-00-0), resulting in a final drug concentration of 1 mg/mL.
Intravenous Injection Drug Preparation: An appropriate amount of the test compound was first weighed and dissolved in DMSO (Macklin cas: 67-68-5) to prepare a 30 mg/mL solution. Then, 15 μL of this solution was added to 150 μL of Solutol (Sigma cas: 70142-34-6), followed by 1.335 mL of 20% Captisol (Selleck cas: 182410-00-0), resulting in a final drug concentration of 0.3 mg/mL.
Procedures: The mice were fasted overnight with free access to water before the experiment. Food was restored two hours after dosing. Blood samples were collected at different time points after intravenous injection or oral gavage of the test compound in mice, and the compound concentration in plasma was measured. Approximately 50 μL of blood was collected from each animal using a capillary sampling tube via the orbital venous plexus, with heparin sodium as an anticoagulant. Blood samples were placed on ice, centrifuged at 3500 r/min for 10 minutes to separate the plasma, and 20 μL of the collected plasma was added to 200 μL of acetonitrile (Merck cas: 75-05-8) containing 200 nM dexamethasone (Selleck cas: 50-02-2) as an internal standard. The mixture was centrifuged at 8000 r/min for 20 minutes. After centrifugation, 150 μL of the supernatant was transferred to a new centrifuge tube, and 150 μL of 0.1% formic acid (Fisher cas: 207868) was added. The mixture was mixed well, and 5 μL of the sample was subjected to quantitative analysis by liquid chromatography-mass spectrometry (Q-TOF LC/MS).
The test compound was serially diluted with DMSO to cover the compound concentrations expected in plasma samples to be tested, with a blank sample (containing only DMSO) included.
2 μL of each diluted sample at various concentrations was added to 18 μL of normal ICR mouse plasma, mixed, and then added to 200 μL of acetonitrile (Merck cas: 75-05-8) containing 200 nM dexamethasone (Selleck cas: 50-02-2) as an internal standard. The mixture was centrifuged for 20 minutes (8000 r/min). 150 μL of the supernatant was transferred to a new centrifuge tube, and 150 μL of 0.1% formic acid (Fisher cas: 207868) was added. The mixture was mixed well, and 5 μL of the sample was subjected to quantitative analysis by liquid chromatography-mass spectrometry (Q-TOF LC/MS).
The final standard curve was plotted using the concentration of the test compound after dilution on the abscissa and the ratio of the signal of the compound to the internal standard (dexamethasone) on the ordinate. The standard curve was generated using linear regression with GraphPad Prism 8 software (R2>0.9900).
Data Analysis: calculation of pharmacokinetic parameters: the concentration of the test compound in plasma at different time points after intravenous injection or oral gavage in ICR mice was determined based on the above standard curve, and pharmacokinetic parameters (T1/2, Cmax, AUC, etc.) were calculated using the Phoenix WinNonlin 8.1 non-compartmental analysis model.

PARP1, sequence (P09874 whole entry): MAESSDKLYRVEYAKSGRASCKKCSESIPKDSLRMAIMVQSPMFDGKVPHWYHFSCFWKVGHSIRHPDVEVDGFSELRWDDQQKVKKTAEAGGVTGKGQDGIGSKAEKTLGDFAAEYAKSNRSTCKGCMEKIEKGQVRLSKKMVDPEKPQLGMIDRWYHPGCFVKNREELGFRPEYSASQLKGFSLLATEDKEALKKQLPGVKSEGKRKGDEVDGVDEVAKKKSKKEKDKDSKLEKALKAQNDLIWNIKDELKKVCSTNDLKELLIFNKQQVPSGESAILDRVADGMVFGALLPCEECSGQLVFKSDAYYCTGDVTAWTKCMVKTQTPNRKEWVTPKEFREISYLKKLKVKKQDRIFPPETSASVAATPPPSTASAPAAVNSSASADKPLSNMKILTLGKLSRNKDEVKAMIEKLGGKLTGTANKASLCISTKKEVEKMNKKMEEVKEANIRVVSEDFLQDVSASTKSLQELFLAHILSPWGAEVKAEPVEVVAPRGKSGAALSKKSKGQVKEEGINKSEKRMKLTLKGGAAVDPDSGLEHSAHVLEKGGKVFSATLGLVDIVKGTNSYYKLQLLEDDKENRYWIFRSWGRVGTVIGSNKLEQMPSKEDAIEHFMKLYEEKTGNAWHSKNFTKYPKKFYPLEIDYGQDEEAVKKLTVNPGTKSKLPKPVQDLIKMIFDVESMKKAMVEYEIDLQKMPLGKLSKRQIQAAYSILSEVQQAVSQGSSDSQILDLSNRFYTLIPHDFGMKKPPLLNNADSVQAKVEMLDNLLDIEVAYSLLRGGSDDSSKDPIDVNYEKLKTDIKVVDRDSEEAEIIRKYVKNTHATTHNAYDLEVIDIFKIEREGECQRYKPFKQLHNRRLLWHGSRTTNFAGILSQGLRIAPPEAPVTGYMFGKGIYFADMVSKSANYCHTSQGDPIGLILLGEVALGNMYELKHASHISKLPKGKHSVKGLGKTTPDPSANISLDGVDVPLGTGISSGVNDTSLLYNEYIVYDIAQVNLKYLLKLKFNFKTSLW

Compound: CNC(=O)c1ccc(N2CCN(Cc3cnc4c(C)c(C(F)(F)F)c(=O)[nH]c4c3)CC2)cn1 [Compound 1, N-methyl-5-(4-((8-methyl-6-oxo-7-(trifluoromethyl)-5,6-dihydro-1,5-naphthyridin-3-yl)methyl)piperazin-1-yl)picolinamide]
- IC50 (PARP1): 2.78 nM
- Tumor Growth Inhibition Rate (TGI) ([1]; 0.1 mg/kg oral once daily): 105%
- Tumor Growth Inhibition Rate (TGI) ([1]; 0.3 mg/kg oral once daily): 106%
- Tumor Growth Inhibition Rate (TGI) ([1]; 1.0 mg/kg oral once daily): 107%
- Body weight vs vehicle control group ([1]; mouse, in vivo): no significant difference
- AUC(0-inf) [2]: 972 µg·h/mL
- Cmax [2]: 39600 ng/mL
- half-life [2]: 17.9 h
